Laboratory results as given in patent US6225336A, “Compounds having [2.2.1] bicyclo skeleton” (Shionogi & Co., Ltd., priority 1997, dated 2001).

Experiments:
[1] = biological target: T1, PGD2 Receptor (Homo sapiens, UniProt Q13258); assay: Binding to PGD2 Receptor (human platelet membrane fraction, [3H]PGD2); conditions: 5 nM [3H]PGD2, pH 7.4, 4° C., 90 min, read-out: Inhibitory activity IC50
T1 construct: endogenous in cells; host or cells: washed human platelets from a healthy volunteer
T1 sequence (Q13258 1-359): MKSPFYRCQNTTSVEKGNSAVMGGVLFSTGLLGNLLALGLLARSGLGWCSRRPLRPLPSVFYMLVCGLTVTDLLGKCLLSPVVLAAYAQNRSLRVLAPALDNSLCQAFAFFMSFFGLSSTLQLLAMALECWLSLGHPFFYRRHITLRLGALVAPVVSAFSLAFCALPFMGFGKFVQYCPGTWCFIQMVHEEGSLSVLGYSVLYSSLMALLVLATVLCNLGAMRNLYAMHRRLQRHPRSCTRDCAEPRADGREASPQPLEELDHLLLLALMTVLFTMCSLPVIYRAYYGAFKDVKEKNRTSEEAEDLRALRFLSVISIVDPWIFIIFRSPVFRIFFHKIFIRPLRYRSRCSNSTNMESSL
Procedure: (1) Preparation of Human Platelet Membrane Fraction
Blood was collected using a plastic syringe containing 3.8% sodium citrate from the vein of healthy volunteers (adult male and female), then put into a plastic test tube and mixed by slow-reversion. The sample was then centrifuged at 1800 rpm. for 10 min at room temperature, and the supernatant containing PRP (platelet-rich plasma) was collected. The PRP was re-centrifuged at 2300 rpm, for 22 min at room temperature to obtain platelets. The platelets were homogenized using a homogenizer (Ultra-Turrax) followed by centrifugation 3 times at 20,000 rpm, 10 min at 4° C. to obtain a platelet membrane fraction. After protein determination, the membrane fraction was adjusted to 2 mg/ml and preserved in a refrigerator at -80° C. until using for the binding test.
(2) Binding to PGD2 Receptor.
To a binding-reaction solution (50 mM Tris/HCl, pH 7.4, 5 mM MgCl2) (0.2 ml) were added the human platelet membrane fraction (0.1 mg) and 5 nM [^3 H ]PGD2 (115 Ci/mmol), and the mixture was reacted at 4° C. for 90 min. After the reaction, the mixture was filtered through a glass fiber filter paper and washed several times with cooled physiologic saline, then the radioactivity retained on the filter paper was measured. The specific-binding ratio was calculated by subtracting the non-specific binding ratio which is the radio activity similarly measured in the presence of 10 μM PGD2 from the total binding. The inhibitory activity of each compound was expressed as the concentration required for 50% inhibition (IC50), which was determined by depicting a substitution curve by plotting the binding ratio (%) in the presence of each compound, where the binding ratio in the absence of a test compound is 100%.

[2] = biological target: T1, PGD2 Receptor; assay: Antagonistic Activity Against PGD2 Receptor Using Human Platelet (cAMP increased by PGD2); type: cell-based; conditions: inhibition of cAMP increase by 0.1 μM PGD2 in washed human platelets
Procedure: Experiment 2 Evaluation of Antagonistic Activity Against PGD2 Receptor Using Human Platelet
Peripheral blood was collected from a healthy volunteer using a syringe in which 1/9 volume of a citric acid/dextrose solution was previously added. The sample was subjected to centrifugation at 180 g for 10 min to obtain the supernatant (PRP: platelet rich plasma). The resultant PRP was washed 3 times with a washing buffer and the number of platelet was counted with a micro cell counter. A suspension adjusted to contain the platelets at a final concentration of 5×10^8 /ml was warmed at 37° C., then subjected to the pre-treatment with 3-isobutyl-1-methylxanthine (0.5 mM) for 5 min. To the suspension was added a test compound diluted at various concentration, and 10 minutes later, 0.1 μM PGD2 was added to induce the reaction 2 minutes later, hydrochloric acid was added to terminate the reaction. The platelet was destroyed with an ultrasonic homogenizer. After centrifugation, the cAMP in the supernatant was determined by radioimmunoassay. PGD2 receptor antagonism of a drug was evaluated as follows: the inhibition rate regarding cAMP increased by the addition of PGD2 was determined at each concentration, and the concentration of the (drug required for 50% inhibition (IC50) was calculated. The results are shown below.

[3] = biological target: T2, TXA2 Receptor (Homo sapiens, UniProt P21731); assay: Binding to TXA2 Receptor (human platelet membrane fraction, [3H](+)-S-145 sodium salt); conditions: 2 nM [3H](+)-S-145 sodium salt, pH 7.4, room temperature, 90 min, read-out: Inhibitory activity to TXA2 Receptor: IC50
T2 construct: The human platelet fraction was prepared in accordance with Experiment 1 (1); from tissue; host or cells: human platelets from blood of healthy volunteers (membrane fraction)
T2 sequence (P21731 1-343): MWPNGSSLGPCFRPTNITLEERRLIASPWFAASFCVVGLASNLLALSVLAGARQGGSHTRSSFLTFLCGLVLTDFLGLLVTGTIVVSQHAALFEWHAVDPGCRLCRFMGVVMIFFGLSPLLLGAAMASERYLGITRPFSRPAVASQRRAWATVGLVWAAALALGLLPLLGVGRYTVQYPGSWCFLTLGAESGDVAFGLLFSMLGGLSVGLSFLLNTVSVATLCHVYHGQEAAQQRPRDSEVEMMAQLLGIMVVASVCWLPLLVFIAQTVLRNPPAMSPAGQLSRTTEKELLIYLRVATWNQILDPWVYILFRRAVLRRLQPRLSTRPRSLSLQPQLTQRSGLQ
Procedure: (I) Preparation of Human Platelet Membrane Fraction
The human platelet fraction was prepared in accordance with Experiment 1 (1).
(2) Binding to TXA2 Receptor
To a binding-reaction solution (50 mM Tris/HCl, pH 7.4. 10 mM MgCl2) (0.2 ml) were added the human platelet membrane fraction (0.05 mg) and 2 nM Sodium [^3 H](+)-(5Z)-7-[3-endo-[(phenylsulfonyl)aminol]bicyclo[2.2. 1]hept-2-exo-iy]heptenoate (Japanese Patent Publication (Kokoku) No.79060/1993, hereinafter referred to as (+)-S-145 sodium salt) (26.4 Ci/mmol), and the mixture was reacted at room temperature for 90 min. After the reaction, the resultant mixture was filtered through a glass fiber filter paper and washed several times with cooled physiological saline, then the radioactivity retained on the filter paper was measured. The specific-binding ratio was calculated by subtracting the non-specific binding ratio (the radio activity similarly determined in the presence of 10 μM (+)-S-145 sodium salt) from the total binding. The inhibitory activity of each compound was expressed as the concentration required for 50% inhibition (IC50), which was determined by depicting a substitution curve by plotting the binding ratio (%) in the presence of each compound, where the binding ratio in the absence of a test compound is 100%.

[4] = tested on: Hartley male guinea pig; assay: Nasal Blockage Model (intranasal pressure of OVA-sensitized guinea pigs); type: in vivo; conditions: 30 mg/kg orally 60 min before antigen exposure; intranasal pressure AUC 0-30 min vs vehicle
Procedure: Experiment Using Nasal Blockage Model
Recently, It has been paid an attention to a theory that PGD2 is one of causative substances of nasal blockage caused by allergic rhinitis, and proposed to develop an inhibitor of PGD2 biosynthesis or an antagonist to the PGD2 receptor as a drug reducing nasal blockage. Thus, as to the compounds of the present, invention. the anti-nasal blockage effect was evaluated by measuring the intranasal pressure of guinea pigs.
A 1% ovalbumin (OVA) solution was treated with an ultrasonic nebulizer to obtain an aerosol. Hartley male guinea pig was sensitized by inhaling the aerosol twice each or 10 min at one-week interval. Seven days after the sensitization, the guinea pig was exposed to an antigen to initiate the reaction. Briefly, the trachea of he guinea pig was incised under the anesthesia with pentobarbital (30 mg/kg. i.p.) and cannulas were inserted into the trachea at the pulmonary and nasal cavity sides. […] After arresting the spontaneous respiration of the guinea pig with Gallamin (2 mg/kg, i.v.), 4 ml/time of air was supplied to the snout side with an artificial respirator at the frequency of 70 times/min, and the atmospheric pressure required for the aeration was measured by using a transducer fitted at the branch. The measured pressure was used as a parameter of the nasal cavity resistance. […]

SMILES	IC50 [1] [nM]	IC50 [2] [nM]	IC50 [3] [nM]	Inhibitory Rate (%) [4] [%]
O=C(O)CCC/C=C\C[C@H]1[C@@H]2CC[C@@H](C2)[C@@H]1NC(=O)c1csc2ccc(F)cc12 [Compd. 5, (5Z)-7-{(1R, 2S, 3S, 4S)-3-(5-Fluorobenzo[b]thiophen-3-carbonylamino)-bicyclo[2.2. 1]hept-2-yl}-5-heptenoic acid]	57	34	–	–
O=C(O)CCC/C=C\C[C@H]1[C@@H]2CC[C@@H](C2)[C@@H]1NC(=O)c1cccc2ccsc12 [Compd. 3, (5Z)-7-{(1R, 2S, 3S, 4S)-3-(Benzo[b]thiophen-7-carbonylamino)-bicyclo[2.2. 1]hept-2-yl}-5-heptenoic acid]	87	22	–	–
O=C(O)CCC/C=C\C[C@H]1[C@@H]2CC[C@@H](C2)[C@@H]1NC(=O)c1csc2ccccc12 [Compd. 4, (5Z)-7-{(1R, 2S, 3S, 4S)-3-(Benzo[b]thiophen-3-carbonylamino)-bicyclo[2.2. 1]hept-2-yl}-5-heptenoic acid]	8.2	41	3800	–
O=C(O)CCC/C=C\C[C@H]1[C@@H]2CC[C@@H](C2)[C@@H]1NC(=O)c1ccsc1 [Compd. 2, (5Z)-7-{(1R, 2S, 3S, 4S)-3-(Thiophen-3-carbonylamino)-bicyclo[2.2.1]hept-2-yl}-5-heptenoic acid]	31	360	–	–

The next lines start with results.

IC50 [1] [nM]	IC50 [2] [nM]	IC50 [3] [nM]	SMILES	Inhibitory Rate (%) [4] [%]
180	8.2	–	O=C(O)CCC/C=C\C[C@H]1[C@@H]2CC[C@@H](C2)[C@@H]1NC(=O)c1csc2cc(O)ccc12 [Compd. 6]	–
5.5	> 1000	1800	O=C(O)CCC/C=C\C[C@@H]1[C@H]2CC[C@H](C2)[C@H]1NC(=O)c1csc2ccc(O)cc12 [Compd. 18, (5Z)-7-{(1S, 2R, 3R, 4R)-3-(5-Hydroxybenzo[b]thiophen-3-carbonylamino)-bicyclo[2.2. 1]hept-2-yl}-5-heptenoic acid]	–
9.6	3.9	–	O=C(O)CCC/C=C\C[C@H]1[C@@H]2CC[C@@H](C2)[C@@H]1NC(=O)c1csc2ccc(O)cc12 [Compd. 1, (5Z)-7-{(1R, 2S, 3S, 4S)-3-(5-Hydroxybenzo[b]thiophen-3-carbonylamino)-bicyclo[2.2. 1]hept-2-yl}-5-heptenoic acid]	74
